Assay results published in BigSolDB 2.1.

solubility (mole fraction) (in n-hexane, 293.2 K) | solubility (mole fraction) (in n-hexane, 298.2 K) | solubility (mole fraction) (in n-hexane, 303.2 K) | solubility (mole fraction) (in n-hexane, 310.2 K) | solubility (mole fraction) (in n-hexane, 315.2 K) | solubility (mole fraction) (in n-octanol, 293.2 K) | solubility (mole fraction) (in n-octanol, 298.2 K) | solubility (mole fraction) (in n-octanol, 303.2 K) | solubility (mole fraction) (in n-octanol, 310.2 K) | solubility (mole fraction) (in n-octanol, 315.2 K) | solubility (mole fraction) (in n-octanol, 288.2 K) | solubility (mole fraction) (in n-octanol, 290.7 K) | solubility (mole fraction) (in n-octanol, 295.7 K) | Compound
9.2e-06 | 1.51e-05 | 2.02e-05 | 3.51e-05 | 4.8e-05 | 0.0466 | 0.0627 | 0.0694 | 0.101 | 0.121 |  |  |  | COc1ccc(Nc2nc(CC(C)O)ns2)cc1 (stereo not given)
3.5e-06 | 5.2e-06 | 6.9e-06 | 1.13e-05 | 1.73e-05 | 0.0187 | 0.0218 | 0.0245 | 0.029 | 0.035 |  |  |  | CC(O)Cc1nsc(Nc2ccc(Cl)cc2)n1 (stereo not given)
3.2e-06 | 4.8e-06 | 6.2e-06 | 9.2e-06 | 1.28e-05 | 0.0121 | 0.0134 | 0.0166 | 0.021 | 0.0251 |  |  |  | Cc1ccc(Nc2nc(CC(C)O)ns2)cc1Cl (stereo not given)
2.95e-05 | 3.79e-05 | 4.73e-05 | 5.55e-05 | 6.64e-05 | 0.0488 | 0.054 |  |  |  | 0.0441 | 0.0465 | 0.0515 | Cc1ccc(Cl)cc1Nc1nc(CC(C)O)ns1 (stereo not given)
2.49e-05 | 3.4e-05 | 4.59e-05 | 5.6e-05 | 7.05e-05 | 0.0266 | 0.0355 | 0.038 | 0.0501 | 0.0558 |  |  |  | Cc1cccc(Nc2nc(CC(C)O)ns2)c1 (stereo not given)
5.5e-06 | 9e-06 | 1.32e-05 | 2.4e-05 | 3.62e-05 | 0.0546 | 0.0633 | 0.0729 | 0.0885 | 0.101 |  |  |  | CC(O)Cc1nsc(Nc2cccc(Cl)c2)n1 (stereo not given)
